Assay results taken from US9884063B2, “Amido-substituted azole compounds” (Bayer Pharma Aktiengesellschaft, priority 2014, dated 2018).

Experiments:
TNKS1 = target: T1, TNKS1 (Homo sapiens, UniProt O95271); experiment: Modified TNKS1 Assay 3 (BPS kit #80573, biotin-NAD+, 96 well); format: biochemical; details: human TNKS1, BPS kit #80573, 96 well
T1 sequence (O95271 1-1327): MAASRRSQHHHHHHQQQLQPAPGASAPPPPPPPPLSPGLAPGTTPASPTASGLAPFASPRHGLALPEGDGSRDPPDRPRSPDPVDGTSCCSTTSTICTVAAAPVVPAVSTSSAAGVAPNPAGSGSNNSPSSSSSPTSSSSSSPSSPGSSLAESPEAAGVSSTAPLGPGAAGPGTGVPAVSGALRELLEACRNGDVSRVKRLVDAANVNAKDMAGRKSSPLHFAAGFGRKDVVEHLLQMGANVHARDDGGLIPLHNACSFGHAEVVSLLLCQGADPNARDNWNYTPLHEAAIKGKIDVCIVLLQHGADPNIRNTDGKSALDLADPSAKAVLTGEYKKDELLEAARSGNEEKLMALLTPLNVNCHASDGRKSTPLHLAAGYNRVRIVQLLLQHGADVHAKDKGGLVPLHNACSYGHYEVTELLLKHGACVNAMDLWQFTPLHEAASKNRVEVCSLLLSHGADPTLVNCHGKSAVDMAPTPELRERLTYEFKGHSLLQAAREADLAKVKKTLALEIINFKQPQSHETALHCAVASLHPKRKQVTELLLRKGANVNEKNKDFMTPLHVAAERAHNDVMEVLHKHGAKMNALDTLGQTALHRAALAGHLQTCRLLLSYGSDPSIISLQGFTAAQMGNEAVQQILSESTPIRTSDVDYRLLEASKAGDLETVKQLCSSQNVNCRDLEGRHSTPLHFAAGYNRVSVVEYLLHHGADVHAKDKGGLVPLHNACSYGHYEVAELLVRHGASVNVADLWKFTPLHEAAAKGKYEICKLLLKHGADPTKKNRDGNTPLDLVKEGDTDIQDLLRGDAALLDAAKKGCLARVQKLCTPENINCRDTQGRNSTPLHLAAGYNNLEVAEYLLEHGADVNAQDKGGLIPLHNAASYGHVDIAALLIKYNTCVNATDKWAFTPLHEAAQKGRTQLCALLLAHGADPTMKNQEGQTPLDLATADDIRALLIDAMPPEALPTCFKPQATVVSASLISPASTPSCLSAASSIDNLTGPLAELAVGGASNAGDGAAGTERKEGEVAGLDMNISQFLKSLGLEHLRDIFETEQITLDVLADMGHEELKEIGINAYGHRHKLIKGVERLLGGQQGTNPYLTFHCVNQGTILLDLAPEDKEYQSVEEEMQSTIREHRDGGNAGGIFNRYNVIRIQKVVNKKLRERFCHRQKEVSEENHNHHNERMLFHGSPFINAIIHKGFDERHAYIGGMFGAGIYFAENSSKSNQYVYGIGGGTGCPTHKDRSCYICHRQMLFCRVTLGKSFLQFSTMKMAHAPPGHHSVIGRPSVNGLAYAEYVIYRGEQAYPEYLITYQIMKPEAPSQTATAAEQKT
Method in brief: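 Chemiluminescent assay of TNKS1-catalysed ribosylation of a protein substrate with biotin-labelled NAD+, detected via streptavidin-HRP; run per kit protocol. Inhibition lowers the signal, and IC50 is the compound concentration halving the normalised readout.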

[1] = tested on: HEK293 FOP control reporter cell line; experiment: HEK293 FOP Assay (FOP control vector luciferase reporter); format: cell-based; details: Homo sapiens
Method in brief: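 Stable HEK293 line carrying the FOP vector (randomized, non-functional TCF sites; Geneticin-selected) was run in parallel with the TOP line. Cells were plated 24 h ahead at 10000/well and given recombinant human Wnt-3a at 2500–5 ng/ml. Compounds were tested at 50 μM–15 nM (3.16-fold steps) in CAFTY buffer, pH 7.4, with 2 mM Ca2+ and 0.01% BSA.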

[2] = HEK293 FOP control reporter cells, 16 hours, luciferase, dilution series from 50 μM
[3] = HEK293 FOP control reporter cell line, 16 hours incubation, compound dilution series 50 μM to 15 nM

Structure (SMILES)	IC50 (TNKS1)	IC50 [1, 2]	IC50 [1, 3]
CN(C)CCNC(=O)c1nc[nH]c1C(=O)Nc1ccc(NC(=O)c2ccc(F)cc2Cl)cc1 [Example 22, N^4-{4-[(2-chloro-4-fluorobenzoyl)amino]phenyl}-N^5-[2-(dimethylamino)ethyl]-1H-imidazole-4,5-dicarboxamide]	30 nM	≥ 50000 nM	
O=C(Nc1ccc(NC(=O)c2[nH]cnc2C(=O)NCCN2CCCCC2)cc1)c1ccc(F)cc1Cl [Example 32, N^4-{4-[(2-chloro-4-fluorobenzoyl)amino]phenyl}-N^5-[2-(piperidin-1-yl)ethyl]-1H-imidazole-4,5-dicarboxamide]	8 nM	42000 nM	30000 nM
CS(=O)(=O)c1ccc(C(=O)Nc2ccc(NC(=O)c3[nH]cnc3C(=O)NCCN3CCCCC3)cc2)c(Cl)c1 [Example 53, N^5-(4-{[2-chloro-4-(methylsulfonyl)benzoyl]amino}phenyl)-N^4-[2-(piperidin-1-yl)ethyl]-1H-imidazole-4,5-dicarboxamide]	2 nM		
CNC(=O)c1nc[nH]c1C(=O)Nc1ccc(NC(=O)c2ccc(S(C)(=O)=O)cc2Cl)cc1 [Example 55, N^5-(4-{[2-chloro-4-(methylsulfonyl)benzoyl]amino}phenyl)-N^4-methyl-1H-imidazole-4,5-dicarboxamide]	30 nM		
CNC(=O)c1nc[nH]c1C(=O)Nc1ccc(NC(=O)c2ccc(F)cc2Br)cc1 [Example 56, N^5-{4-[(2-bromo-4-fluorobenzoyl)amino]phenyl}-N^4-methyl-1H-imidazole-4,5-dicarboxamide]	90 nM		10000 nM
CNC(=O)c1nc[nH]c1C(=O)Nc1ccc(NC(=O)c2ccc(F)cc2I)cc1 [Example 61, N^5-{4-[(4-fluoro-2-iodobenzoyl)amino]phenyl}-N^4-methyl-1H-imidazole-4,5-dicarboxamide]	140 nM		
Cc1nc(C(=O)Nc2ccc(NC(=O)c3ccc(F)cc3Cl)cc2)c(C(=O)NCCN2CCCCC2)[nH]1 [Example 67, N^4-{4-[(2-chloro-4-fluorobenzoyl)amino]phenyl}-2-methyl-N^5-[2-(piperidin-1-yl)ethyl]-1H-imidazole-4,5-dicarboxamide]	5 nM		13000 nM
C[C@@H]1CCCCN1CCNC(=O)c1[nH]cnc1C(=O)Nc1ccc(NC(=O)c2ccc(F)cc2Cl)cc1 [Example 267, N^4-{4-[(2-chloro-4-fluorobenzoyl)amino]phenyl}-N^5-{2-[(2R)-2-methylpiperidin-1-yl]ethyl}-1H-imidazole-4,5-dicarboxamide]	20 nM		20000 nM
C[C@@H]1CCCN(CCNC(=O)c2[nH]cnc2C(=O)Nc2ccc(NC(=O)c3ccc(F)cc3Cl)cc2)C1 [Example 278, N^4-{4-[(2-chloro-4-fluorobenzoyl)amino]phenyl}-N^5-{2-[(3R)-3-methylpiperidin-1-yl]ethyl}-1H-imidazole-4,5-dicarboxamide]	< 0.5 nM		25000 nM
